Experimental data as given in patent US8080377B2, “Method for confirming the exposure on chrysene” (Korea Institute of Science and Technology, priority 2008, dated 2011).

What was measured:
[1] = tested on: salmonella TA110 and TA98 strains; conditions: even under normal metabolic activity of the liver (rats); cited from earlier work
HepG2 cells = assay: Quantitative real time RT-PCR of genes up- or down-regulated by chrysene; assay type: cell-based, human
Method: […]
To investigate and quantify the expressions of those genes, primers which can specifically proliferate of those genes' mRNA (see Table 4) were prepared, and quantitative real time RT-PCR was performed using My IQ Real-time PCR (Bio-rad, USA). […] To quantify PCR product, SYBR Green I (Bio-rad, USA) staining was performed. SYBR Green I staining is based on binding to double stranded DNA, so that as double stranded DNA increases during PCR, fluorescence intensity increases. […]

[2] = Cytotoxicity assay (MTT assay), chrysene treated 48 hours; assay type: cell-based, human; conditions: human, HepG2 cells; HepG2, MTT, 48 hours; read-out: IC20 (concentration exhibiting 80% cell survival rate)
Method: (§1) The human hepatoma cell line HepG2 (Korean Cell Line Bank) was cultured in DMEM (Gibco-BRL, USA) supplemented with 10% FBS in 100 mm dish until it grew 80%. The present inventors selected chrysene (Sigma-Aldrich, USA) among polycyclic aromatic hydrocarbons known to have carcinogenicity, based on the previous studies and reports. Chrysene was dissolved in DMSO. The concentration of vehicle was up to 0.1% in every experiment.
(§2) MTT assay with the HepG2 cell line was performed according to the method of Mossman et al. (J. Immunol. Methods, 65: 55-63, 1983). The cells were inoculated in a 24-well plate containing DMEM at the concentration of 4×10^5 cells/well, to which chrysene dissolved in DMSO was treated. 48 hours later, MTT (3-[4,5-dimethylthiazol-2-yl]-2,5-diphenyltetra zolium bromide) was added at the concentration of 5 mg/ml, followed by culture at 37° C. for 3 hours. Then, medium was eliminated and generated formazan crystal was dissolved in 500 μl of DMSO. The solution was aliquoted in a 96 well-plate and OD540 was measured. Cytotoxicity in the HepG2 cell line caused by chrysene was investigated. As a result, IC20 was 34.97 µM (see FIG. 1) and thus the concentration of chrysene for the further experiment was determined as the above.

HepG2 cell line = assay: as above; assay type: cell-based, human; conditions: HepG2
Method: as §1, §2

[3] = animal tests; cited from earlier work

c1ccc2c(c1)ccc1c3ccccc3ccc21 [chrysene]
mutagenicity in Ames tests [1]: showed mutagenicity
expression profiles of 25 up-regulated genes and 10 down-regulated genes (HepG2 cells): consistent with the result of oligo-microarray
IC20 at 48 h [2]: 35 µM
cytotoxicity in the human hepatoma cell line (HepG2 cell line): demonstrated cytotoxicity
absorption rate through skin [3]: very slow
absorption via oral pathway [3]: absorbed
